The values below come from patent US20250137050A1, “METHODS AND COMPOSITIONS FOR DETERMINING RISK OF AUTISM SPECTRUM DISORDERS” (The Regents of the University of California, priority 2021, published 2025).

Entries after “also recorded” stand apart in the source; their conditions may differ.

Holding throughout (assay type): cell-based, human
Data set [1] has as its system LUHMES cells. The experiment in a line: Cell viability (CellTiter Blue) of LUHMES cells after hypoxia mimetic. The conditions noted are these: differentiated LUHMES neurons compared with undifferentiated; CoCl2 for 24 hours. How it is done: (§1) LUHMES cells (ATCC, Manassas, VA, USA, CRL-2927) were seeded on fibronectin coated plates (Thermo Fisher Scientific, Waltham, MA, USA, CWP001, 354402). Undifferentiated cells were maintained in proliferation medium: Advanced DMEM/F12 (Invitrogen, Carlsbad, CA, USA), supplemented with N2 supplement (Invitrogen, Carlsbad, CA, USA), Penicillin-streptomycin-glutamine (Thermo Fisher Scientific, Waltham, MA, USA), and 40 ng/ml recombinant bFGF (Invitrogen, Carlsbad, CA, USA). To generate differentiated LUHMES, cells were switched to differentiation media for five days. […] For RNA quantification, cells were maintained in 6-well plates. […]
(§2) All cells were maintained at 37° C. containing […] and 5% CO2. […] Cell numbers were measured using disposable countess chamber slide on Countess II FL automated cell counter (Thermo Fisher Scientific, Waltham, MA, USA) under the default steps with mixing 10 μl of samples with 10 μl of trypan blue. CellTiter Blue reagent was used for measured cell viability using […] based on manufacturer instruction (Promega, Madison, WI, USA). H2O2 production represented relative reactive oxygen species (ROS) level was measured with the ROS-Glo H2O2 assay system using 50 nM with the default setting with level measured by luminometer (Promega, Madison, WI, USA).

Data set [2] concerns LUHMES cells. Briefly: Reactive oxygen species (ROS-Glo H2O2 assay) in LUHMES cells after hypoxia mimetic. The conditions noted are these: differentiated LUHMES neurons compared with undifferentiated; 100 nM CoCl2 for 24 hours. How it is done:
as §1, §2

For the next data set, the system named is NHIP. Briefly: NHIP transcript levels by RT-qPCR in LUHMES cells after hypoxia mimetic. The settings on record: differentiated LUHMES cells. On the procedure: as §1, with “days. Differentiation media: Advanced DMEM/F12, supplemented with N2 supplement, Penicillin-streptomycin-glutamine, 1 mM dbcAMP (MilliporeSigma, Burlington, MA, USA), 1 μg/ml tetracycline (Neta Scientific, Hainesport, NJ, USA), and 2 ng/ml recombinant human GDNF (Thermo Fisher Scientific, Waltham, MA, USA).” for “days.”
Total RNA was isolated from HEK293T cells transiently transfected with NHIP-eGFP or negative control NEG-eGFP using AllPrep DNA/RNA/Protein mini kit (Qiagen, Hilden, Germany). […] Fold changes of transcript levels were measured using the Fluidigm Real-Time PCR Analysis software calculated fold change of gene expression as the delta delta CT normalized to GAPDH (Fluidigm, San Francisco, CA, USA).

`[Cl][Co][Cl]` [CoCl2, cobalt chloride]: the cell viability entry in the data set with LUHMES cells [1] is reported as “significant decrease”. For the same molecule, the “reactive oxygen species (ROS) levels” value in the data set on LUHMES cells [2] is on record as “increase”. Also, the NHIP transcript levels result in the data set on NHIP (100 nM CoCl2 for 24 hours vs mock, normalized to GAPDH) is “significantly increased”. Also, in the data set with NHIP (48 hours of recovery (Day 8) after 24 hours of CoCl2), the “NHIP transcript levels after removal of hypoxia mimetic” value is given as “returned to untreated levels; also recorded: returned to mock control baseline levels”.
